From patent publication US11731946B2, “Broad spectrum antivirulence, anti-persistence compounds” (priority 2017, dated 2023)

Tests used:
[1] = tested on: PA14; assay: Mouse thigh infection model (PA14); type: in vivo, mice; conditions: 10 mg/kg SC; CFUs 24 h post-infection
Method: Mice were infected with 5×10^5 and 5×10^6 PA14 cells for the thigh and lung infection model respectively. FIGS. 5A-5C: Thigh model: treatment was initiated […] and repeated at 4, 8, 12 and 18 hours. FIG. 5A: monotherapy with Compound 72, 10 mg/kg (P<0.05 Mann Whitney test); FIG. 5B-5C. Combinatorial: Compound 72 (10 mg/kg) plus Ciprofloxacin 1 mg/kg (subtherapeutic dose) (FIG. 5B: P<0.05; Figure C: P>0.05; Mann Whitney test). CFUs were assessed 24 h post-infection in the thigh (FIG. 5A), liver (FIG. 5B) and spleen (FIG. 5C). Compound 72 was administered subcutaneously and ciprofloxacin intraperitoneally (IP). […] Mice were infected with 5×10^6 PA14 cells lung infection model. Compound 54 (10 mg/kg) plus ciprofloxacin 1 mg/kg treatment (subtherapeutic dose) was initiated at 2 h post-infection and repeated at 6, 12, and 18 h post-infection. CFUs were assessed 24 h post-infection in the lung. Compound 54 was administered subcutaneously and ciprofloxacin intraperitoneally (IP).
Thigh infection studies were performed using Compounds 54 and 72.

[2] = tested on: PA14; assay: Antibiotic tolerance/persister (AT/P) cell formation, meropenem, CFU plating; type: cell-based, P. aeruginosa; conditions: 50 μM compound
Method: Wild type (PA14) P. aeruginosa was grown in liquid culture with or without Compound 54 and treated with meropenem according to published procedures (see e.g., Starkey et al, PLoS Pathog. 2014, 10:e1004321). Data are expressed as fraction of original culture surviving antibiotic treatment.
AT/P efficacy of compounds using CFU plating was assessed by growning over-night, cultures diluted 1:100 in triplicate in fresh LB medium in the presence or absence of inhibitor, and re-grown to an OD600 of 2.0 while shaking under aeration at 37° C. Before the antibiotic treatment, aliquots were plated to obtain reference colony counts. […] At 24-h and 48-h time points, the number of surviving bacteria were assessed by plating. The survival fraction of AT/P cells was calculated by dividing the number of surviving bacteria by the number of live bacteria that were present before the antibiotic treatment (reference datum) and expressed as a mean (±SD) of at least three replicate experiments. Using the same CFU plating assay, the efficacy of all compounds identified will be tested against additional antibiotic classes: b-lactams (ceftazidime, cefepime and imipenem), quinolones (ciprofloxacin, moxifloxacin, and levofloxacin), and aminoglycosides (gentamicin and tobramycicn).

[3] = tested on: MvfR regulon; assay: Quantification of pyocyanin (OD520nm of chloroform-extracted cultures); type: cell-based, P. aeruginosa; conditions: Pseudomonas aeruginosa
[4] = tested on: MvfR regulon; assay: pqsA gene expression (pqsA-GFP reporter); type: cell-based, P. aeruginosa; conditions: Pseudomonas aeruginosa
[5] = Pharmacokinetics in mouse plasma and lung after single subcutaneous injection; type: in vivo, mice; conditions: for stability in vivo (serum concentration): 10 mg/kg subcutaneous, over 24 h
Method: FIGS. 1F-1G show pharmacokinetics measured in mouse plasma (FIG. 1F) and lung (FIG. 1G) following a single subcutaneous injection of Compounds 53, 54, or 72 at 10 mg/kg.

[6] = tested on: PA14; assay: Acute mouse lung infection model (PA14); type: in vivo, mice

Compound: N#Cc1ccc(NC(=O)CC(=O)Nc2ccc(Br)cc2)cc1 [Compound 54]
- bacterial CFUs at the site of infection [1]: reduced bacterial CFUs
- inhibition of persistence [2]: inhibit persistence
- IC50 ([3]; read-out: IC50 pyocyanin (μM)): 1.8 µM
- activity at 1 µM ([3]; read-out: pyocyanin @1 uM (%), compound at 1 uM): 60.8%
- activity at 10 µM ([3]; read-out: pyocyanin @10 uM (%), compound at 10 uM): 5.9%
- activity at 50 µM ([3]; read-out: pyocyanin @50 uM (%), compound at 50 uM): 5.7%
- IC50 ([4]; read-out: IC50 pqsA (μM)): 1.28 µM
- activity at 10 µM ([4]; read-out: pqsA @10 uM (%), compound at 10 uM): 8.8%
- activity at 50 µM ([4]; read-out: pqsA @50 uM (%), compound at 50 uM): 7.93%
- stability in vivo (serum concentration) [5]: stable in vivo
- stability in vivo (serum concentration) ([5]; listed as D42): highly stable in vivo
- pharmacokinetics (in words) ([5]; mouse, in vivo): promising pharmacokinetics
- potentiation of ciprofloxacin in reducing PA cells in mice lungs ([6]; 10 mg/kg compound SC plus ciprofloxacin 1 mg/kg IP, CFUs 24 h post-infection): potentiates ciprofloxacin efficacy
- recoverable CFUs from infected lungs ([6]; preliminary, intranasal infection, 10 mg/kg compound vs vehicle): reduces the recoverable CFUs from infected lungs
